In US20230341403A1, “METHODS AND KITS FOR THE DIAGNOSIS OF LUNG CANCER” (priority 2020, published 2023):

Test system: A549 cells transfected with the LARGE portion of the isoform 4 (PC4-5)
Assay: Cell proliferation by CFSE and flow cytometry in transfected A549 cells
Assay type: cell-based, human
Details: FIG. 6B; for tumour growth / cancer proliferation in the cells transfected with the "large" subunit of the isoform 4: concentration not stated at this place
Description: Transfections. A549 cells, lung adenocarcinoma, were transfected by means of marketable kits for 72 hours in transient way with the plasmid vectors: 1. PC4-1, miming the whole isoform 1 of the caspase-4; 2. PC4-2, miming CARD+LARGE subunit; 3. PC4-3, miming LARGE+SMALL subunit of the isoform 1; 4. PC4-4, miming LARGE subunit of the isoform 1 and 5. PC4-5, miming LARGE subunit of the isoform 4 of the caspase-4. The cell proliferation was evaluated through method of CFSE (1 μM), analysed by means of flow cytometry. In some experiments, the transfected cells marked with CFSE, were subjected to treatment with two leader compounds (compound 5: COMP-5; compound 6: COMP-6).
In order to understand the role of the isoform 4 in the cancer growth, the A549 cells, cells of lung adenocarcinoma, were transfected with specific vectors, containing specific portions of the isoform 1 and isoform 4 as described in FIG. 6A. It was observed that the isoform 4 and 1 are both capable of promoting cancer proliferation when the LARGE subunit is expressed with respect to the other considered structures (FIG. 6A). At last, the cells transfected with the large subunit of the isoform 1 (PC4-4) and 4 (PC4-5) were treated with leading compound with the purpose of verifying a cancer growth decrease.

Ac-VVDC-NH2 [compound 6]
cancer growth of the A549 cells transfected with the LARGE portion of the isoform 4 (compound at 10 nM, A549 transfected with PC4-5, CFSE flow cytometry): capable of reducing significantly the cancer growth
tumour growth / cancer proliferation in the cells transfected with the "large" subunit of the isoform 4: can be inhibited
tumour growth / cancer proliferation in the cells transfected with the "large" subunit of the isoform 4 (listed as Ac-VVDC-NH2): significant decrease in the tumour growth
